Measurements reported in patent US9416144B2, “Benzoxazine oxazolidinone compound, preparation method and application thereof” (priority 2012, dated 2016).
Values after ≈ are worked out from the molar mass of the structure shown.

Experiments:
[1] = tested on: Staphylococcus epidermidis sensitive strains (5 strains); test: In vitro antibacterial activity, MIC by agar double dilution method; type: cell-based; details: clinical isolates
Description: (§1) Experimental method: The agar double dilution method (Antimicrob. Agents and Chemother, 40, 1996, 720-726) was used to determine the minimum inhibitory concentration (MIC) of the series of compounds of the invention and the positive control drug linezolid for the test strains. The multipoint inoculation system (Denley A400) was employed to inoculate the bacteria on the agar plate surface with different concentrations of drugs; inoculation amount on each point was about 10^6 CFU/mL. The plates were incubated at 35° C. for 16 hrs before the results were observed. The lowest drug concentration contained in the Petri dish without bacterial growth was used as the minimum inhibitory concentration (MIC value) of the drug fir that strain.
(§2) Test strains: All the test strains were clinically isolated pathogens which were collected from the Nanjing region, and they were re-identified by routine methods before use. 31 strains of the clinically isolated pathogens were chosen, including 6 strains of Enterococcus, 5 Staphylococcus aureus sensitive strains; 5 Staphylococcus epidermidis sensitive strains; 6 Staphylococcus aureus resistant strains; 5 Staphylococcus epidermidis resistant strains; and 4 Streptococcus pneumoniae resistant strains.
(§3) Compounds to be tested were first added 2 ml of DMSO to help them fully dissolved, then added sterile double distilled water to the desired concentration; to all the Petri dish with added drug liquid were added 20 mL MIT medium which was heat-melted to be liquid-like, to make the final drug concentration in the Petri dish to be 64, 32, 16, 8, 4, 2, 1, 0.5, 0.25, 0.125, 0.0625, and 0.031 μg/mL.
(§4) The positive control group was LZ (linezolid, brand name Zyvox, approved by the FDA in 2000 to be firstly sold in the United States, which is the first and also the only one of oxazolidinone antibacterial drugs allowed to enter clinical application).

[2] = tested on: Staphylococcus aureus sensitive strains (5 strains); test: as above; type: cell-based; details: clinical isolates
Description: as §1, §2, §3, §4

[3] = tested on: Staphylococcus aureus resistant strains (6 strains); test: as above; type: cell-based; details: clinical isolates
Description: as §1, §2, §3, §4

[4] = tested on: Staphylococcus epidermidis resistant strains (5 strains); test: as above; type: cell-based; details: clinical isolates
Description: as §1, §2, §3, §4

[5] = tested on: Streptococcus pneumoniae resistant strains (4 strains); test: as above; type: cell-based; details: clinical isolates
Description: as §1, §2, §3, §4

[6] = tested on: Enterococcus (6 strains); test: as above; type: cell-based; details: clinical isolates, 35° C. 16 hrs
Description: as §1, §2, §3, §4

[7] = tested on: LRSE, linezolid-resistant strain of Staphylococcus epidermidis (1 strain); test: In vitro antibacterial activity on linezolid-resistant strains, MIC in MHB broth, 96-well plate; type: cell-based; details: LRSE (1 strain)
Method: (§5) The stock solution of the subject drugs in DMSO was 10 mg/mL. MHA (agar) and MHB (broth) were both prepared according to the manufacturer's requirements.
(§6) Double dilution of drugs: under aseptic operation, 12.8 μL of liquid drug was added into the first well of a 96-well plate, and then added 27.2 μL DMSO and mixed. The 2nd to 12nd wells were all added 20 μL DMSO. 20 μL was taken from the first well to the second well and mixed up. 20 μL was taken from the second well to the third well, which was repeated till the 11st well, from which was taken 20 μL and discarded. The 12nd well only had 20 μL of DMSO as the growth control. Then 180 μL of sterile water was added to each well and mixed up. The drug used as control was prepared by the same method.
(§7) The solutions with different concentrations of antibacterial drugs after the double dilution and DMSO were added into a sterile 96-well plate separately, 10 μL per well, ready for use.
(§8) Single colonies were picked from the MHA plates into 5 ml of sterile saline and mixed up.
(§9) Light transmittance was adjusted to 80% with a spectrophotometer. After being diluted by 1:200 with MHB, 90 μL of such bacteria liquid was added into each of the wells which already had 10 μL of the drug liquid, mixed up, and incubated in a regular biochemical incubator at 35° C. for 20 hrs before the results were read out. At this time, the drug concentration in the 1st to 12nd wells was 32, 16, 8, 4, 2, 1, 0.5, 0.25, 0.125, 0.0625, 0.03125, 0 μg/mL, respectively.
(§10) Two parallel groups were set up for the same diluted concentration of a drug.
(§11) 4) Results Reading and Judgment: Refer to the Standard Recommended by the CLSI, 2010 Edition.
as §4

[8] = tested on: S.a. ATCC 29213 (standard strain of Staphylococcus aureus); test: as above; type: cell-based; details: ATCC29213, 35° C. 20 hrs
Method: as §5, §6, §7, §8, §9, §10, §11, §4

[9] = tested on: LRSA, linezolid-resistant strain of Staphylococcus aureus (3 strains); test: as above; type: cell-based; details: LRSA (3 strains)
Method: as §5, §6, §7, §8, §9, §10, §11, §4

[10] = tested on: LREFA, linezolid-resistant strain of Enterococcus faecium (3 strains); test: as above; type: cell-based; details: LREFA (3 strains)
Method: as §5, §6, §7, §8, §9, §10, §11, §4

[11] = tested on: LREFL, linezolid-resistant strain of Enterococcus faecalis (3 strains); test: as above; type: cell-based; details: LREFL (3 strains)
Method: as §5, §6, §7, §8, §9, §10, §11, §4

MIC [1]	MIC [2]	MIC [3]	MIC [4]	MIC [5]	MIC [6]	melting point	MIC [7]	MIC [8]	MIC [9]	MIC [10]	MIC [11]	Structure (SMILES)
0.125 to 0.5 µg/mL (≈ 0.338 to 1.35 µM)	0.25 µg/mL (≈ 0.675 µM)	0.125 to 0.5 µg/mL (≈ 0.338 to 1.35 µM)	0.125 to 0.5 µg/mL (≈ 0.338 to 1.35 µM)	0.25 to 0.5 µg/mL (≈ 0.675 to 1.35 µM)	1 µg/mL (≈ 2.7 µM)	164 to 166 °C	4 µg/mL (≈ 10.8 µM)	0.5 µg/mL (≈ 1.35 µM)	8 µg/mL (≈ 21.6 µM)	4 to 8 µg/mL (≈ 10.8 to 21.6 µM)	8 µg/mL (≈ 21.6 µM)	C[C@@H](O)C(=O)c1ccc(-c2ccc3c(c2)OC[C@H]2[C@H](CO)OC(=O)N32)cn1 [Compound 1, (3R,3aS)-3-(hydroxylmethyl)-7-(6-((R)-2-hydroxylpropionyl)pyridin-3-yl)-3a,4-dihydrobenzo[b]oxazolo[3,4-d][1,4]oxazin-1(3H)-one]
0.5 to 1 µg/mL (≈ 1.32 to 2.64 µM)	0.5 to 1 µg/mL (≈ 1.32 to 2.64 µM)	0.5 to 1 µg/mL (≈ 1.32 to 2.64 µM)	0.5 to 1 µg/mL (≈ 1.32 to 2.64 µM)	0.5 to 2 µg/mL (≈ 1.32 to 5.27 µM)	1 to 2 µg/mL (≈ 2.64 to 5.27 µM)		4 µg/mL (≈ 10.5 µM)	0.5 µg/mL (≈ 1.32 µM)	8 µg/mL (≈ 21.1 µM)	4 to 8 µg/mL (≈ 10.5 to 21.1 µM)	4 to 8 µg/mL (≈ 10.5 to 21.1 µM)	O=C1O[C@@H](CO)[C@@H]2COc3cc(-c4ccc(Cn5cncn5)nc4)ccc3N12 [Compound 2, (3R,3aS)-7-(6-((1H-1,2,4-triazol-1-yl)methyl)pyridin-3-yl)-3-(hydroxylmethyl)-3a,4-dihydrobenzo[b]oxazolo[3,4-d][1,4]oxazin-1(3H)-one]
0.25 µg/mL (≈ 0.773 µM)	0.25 to 0.5 µg/mL (≈ 0.773 to 1.55 µM)	0.125 to 0.25 µg/mL (≈ 0.387 to 0.773 µM)	0.125 to 0.25 µg/mL (≈ 0.387 to 0.773 µM)	0.25 to 0.5 µg/mL (≈ 0.773 to 1.55 µM)	1 µg/mL (≈ 3.09 µM)		4 µg/mL (≈ 12.4 µM)	0.25 µg/mL (≈ 0.773 µM)	4 to 8 µg/mL (≈ 12.4 to 24.7 µM)	2 to 4 µg/mL (≈ 6.19 to 12.4 µM)	4 µg/mL (≈ 12.4 µM)	N#Cc1ccc(-c2ccc3c(c2)OC[C@H]2[C@H](CO)OC(=O)N32)cn1 [Compound 3, 5-((3R,3aS)-3-(hydroxylmethyl)-1-oxo-1,3,3a,4-tetrahydrobenzo[b]oxazolo[3,4-d][1,4]oxazin-7-yl)picolinonitrile]
0.5 to 1 µg/mL (≈ 1.3 to 2.61 µM)	0.5 to 1 µg/mL (≈ 1.3 to 2.61 µM)	0.5 to 1 µg/mL (≈ 1.3 to 2.61 µM)	0.5 to 1 µg/mL (≈ 1.3 to 2.61 µM)	0.5 to 1 µg/mL (≈ 1.3 to 2.61 µM)	1 µg/mL (≈ 2.61 µM)		2 µg/mL (≈ 5.22 µM)	0.5 µg/mL (≈ 1.3 µM)	4 µg/mL (≈ 10.4 µM)	4 to 8 µg/mL (≈ 10.4 to 20.9 µM)	4 to 8 µg/mL (≈ 10.4 to 20.9 µM)	O=C1OCCN1c1ccc(-c2ccc3c(c2)OC[C@H]2[C@H](CO)OC(=O)N32)cn1 [Compound 5, (3R,3aS)-3-(hydroxylmethyl)-7-(6-(2-oxazolidino-3-yl)pyridin-3-yl)-3a,4-dihydrobenzo[b]oxazolo[3,4-d][1,4]oxazin-1(3H)-one]
